Results on five compounds are retold here after US9963496B2, “Stable glucagon analogues and use for treatment of hypoglycaemia” (Novo Nordisk A/S, priority 2014, dated 2018).

*1 amine or outer side, *2 acyl side, *3 side chain or, on linkers, in order; H or OH if unused. Where a SMILES comes first, the peptide text is derived from it. Side-chain parts run from the residue outwards. [ ]: non-standard residue; d: D form. The star is where a group is joined. γGlu = O=C(O)[C@H](CCC(=O)[*:2])N[*:1]; Desaminohistidyl = O=C(CCc1c[nH]cn1)*; Aib = CC(C)(N)C(=O)O

This series in a line: physchem. It counts as physicochemical. As to conditions: pH 7.5. An excerpt:
Assay (III): ThT Fibrillation Assay for the Assessment of Physical Stability of Peptide Compositions The purpose of this assay is to assess the physical stability of the glucagon derivatives of the invention in aqueous solutions. Low physical stability of a peptide may lead to amyloid fibril formation, which is observed as well-ordered, thread-like macromolecular structures in the sample, which eventually may lead to gel formation. This has traditionally been measured by visual inspection of the sample. However, that kind of measurement is very cumbersome and depending on the observer. Therefore, the application of a small molecule indicator probe is much more advantageous. Thioflavin T (ThT) is such a probe and has a distinct fluorescence signature when binding to fibrils [Naiki et al. (1989) Anal. Biochem. 177, 244-249; LeVine (1999) Methods. Enzymol. 309, 274-284]. Here, as depicted in FIG. 1, F is the ThT fluorescence at the time t. The constant t0 is the time needed to reach 50% of maximum fluorescence. The two important parameters describing fibril formation are the lag-time calculated by t0−2τ and the apparent rate constant kapp 1/τ. Samples were prepared freshly before each assay. Each sample composition is described in the legends. The pH of the sample was adjusted to the desired value using appropriate amounts of concentrated NaOH and HCl. Thioflavin T was added to the samples from a stock solution in H2O to a final concentration of 1 μM. Sample aliquots of 200 μl (250 μM of the glucagon derivative/analogue in 10 mM HEPES buffer, pH 7.5) were placed in a 96 well microtiter plate (Packard OptiPlate™-96, white polystyrene). Usually, four or eight replica of each sample (corresponding to one test condition) was placed in one column of wells. The plate was sealed with Scotch Pad (Qiagen). Incubation at given temperature, shaking and measurement of the ThT fluorescence emission were done in a Fluoroskan Ascent FL fluorescence platereader (Thermo Labsystems). The plate was incubated 37° C. with orbital shaking adjusted to 960 rpm with an amplitude of 1 mm. Fluorescence measurement was done using excitation through a 444 nm filter and measurement of emission through a 485 nm filter. Each run was initiated by incubating the plate at the assay temperature for 10 min. The plate was measured every 20 minutes for a desired period of time. Between each measurement, the plate was shaken and heated as described. After completion of the ThT assay the four or eight replica of each sample was pooled and centrifuged at 20000 rpm for 30 minutes at 18° C. The supernatant was filtered through a 0.22 μm filter and an aliquot was transferred to a HPLC vial. The concentration of peptide in the initial sample and in the filtered supernatant was determined by reverse phase HPLC using an appropriate standard as reference. The percentage fraction the concentration of the filtered sample constituted of the initial sample concentration was reported as the recovery. The measurement points were saved in Microsoft Excel format for further processing and curve drawing and fitting was performed using GraphPad Prism. The background emission from ThT in the absence of fibrils was negligible. The data points were typically a mean of four or eight samples and shown with standard deviation error bars. Only data obtained in the same experiment (i.e. samples on the same plate) were presented in the same graph ensuring a relative measure of fibrillation between experiments. The data set may be fitted to Eq. (1).

Compound `CC(=O)N[C@@H](CCC(=O)N[C@@H](CCC(=O)N[C@@H](CCC(=O)N[C@@H](CCC(=O)NCCCC[C@H](NC(=O)[C@@H](NC(=O)[C@H](Cc1ccccc1)NC(=O)[C@H](CC(=O)O)NC(=O)[C@H](CCC(N)=O)NC(=O)[C@H](C)NC(=O)[C@H](CCCNC(=N)N)NC(=O)[C@H](CCCNC(=N)N)NC(=O)[C@H](CO)NC(=O)[C@H](CCC(=O)O)NC(=O)[C@H](CC(C)C)NC(=O)[C@H](Cc1ccc(O)cc1)NC(=O)[C@H](CCCCN)NC(=O)[C@H](CO)NC(=O)[C@H](CC(C)C)NC(=O)[C@H](CC(=O)O)NC(=O)[C@H](CO)NC(=O)[C@@H](NC(=O)[C@H](Cc1ccccc1)NC(=O)[C@@H](NC(=O)CNC(=O)[C@H](Cc1c[nH]cn1)NC(=O)C(C)(C)NC(=O)CCc1c[nH]cn1)[C@@H](C)O)[C@@H](C)O)C(C)C)C(=O)N[C@@H](Cc1c[nH]c2ccccc12)C(=O)N[C@@H](CC(C)C)C(=O)N[C@@H](CC(C)C)C(=O)N[C@@H](CO)C(=O)N[C@H](C(=O)O)[C@@H](C)O)C(=O)O)C(=O)O)C(=O)O)C(=O)O` [Example 3, N^ϵ24-[(4S)-4-[[(4S)-4-[[(4S)-4-[[(4S)-4-acetamido-4-carboxybutanoyl]amino]-4-carboxybutanoyl]amino]-4-carboxybutanoyl]amino]-4-carboxybutanoyl]-[Imp1, Aib2, His3, Leu10, Glu15, Lys24, Leu27, Ser28]-Glucagon] (Desaminohistidyl-[Aib]HGTFTSDLSKYLESRRAQDFVK([γGlu-γGlu-γGlu-γGlu-Ac])WLLST-OH) yielded a recovery at 250 μM of 100%.
`CC(=O)N[C@@H](CCC(=O)N[C@@H](CCC(=O)N[C@@H](CCC(=O)N[C@@H](CCC(=O)NCCCC[C@H](NC(=O)[C@@H](NC(=O)[C@H](Cc1ccccc1)NC(=O)[C@H](CC(=O)O)NC(=O)[C@H](CCC(N)=O)NC(=O)[C@H](C)NC(=O)[C@H](CCCNC(=N)N)NC(=O)[C@H](CCCNC(=N)N)NC(=O)[C@H](CO)NC(=O)[C@H](CCC(=O)O)NC(=O)[C@H](CC(C)C)NC(=O)[C@H](Cc1ccc(O)cc1)NC(=O)[C@H](CCCCN)NC(=O)[C@H](CO)NC(=O)[C@H](Cc1ccc(O)cc1)NC(=O)[C@H](CC(=O)O)NC(=O)[C@H](CO)NC(=O)[C@@H](NC(=O)[C@H](Cc1ccccc1)NC(=O)[C@@H](NC(=O)CNC(=O)[C@H](Cc1c[nH]cn1)NC(=O)[C@H](CO)NC(=O)CCc1c[nH]cn1)[C@@H](C)O)[C@@H](C)O)C(C)C)C(=O)N[C@@H](Cc1c[nH]c2ccccc12)C(=O)N[C@@H](CC(C)C)C(=O)N[C@@H](CC(C)C)C(=O)N[C@@H](CO)C(=O)N[C@H](C(=O)O)[C@@H](C)O)C(=O)O)C(=O)O)C(=O)O)C(=O)O` [Example 5, N^ϵ24-[(4S)-4-[[(4S)-4-[[(4S)-4-[[(4S)-4-acetamido-4-carboxybutanoyl]amino]-4-carboxybutanoyl]amino]-4-carboxybutanoyl]amino]-4-carboxybutanoyl]-[Imp1, His3, Glu15, Lys24, Leu27, Ser28]-Glucagon] (Desaminohistidyl-SHGTFTSDYSKYLESRRAQDFVK([γGlu-γGlu-γGlu-γGlu-Ac])WLLST-OH) came in with a recovery at 250 μM of 100%.
On to `CC(=O)N[C@@H](CCC(=O)N[C@@H](CCC(=O)N[C@@H](CCC(=O)N[C@@H](CCC(=O)NCCCC[C@H](NC(=O)[C@H](CCC(=O)O)NC(=O)[C@H](CC(C)C)NC(=O)[C@H](Cc1ccc(O)cc1)NC(=O)[C@H](CCCCN)NC(=O)[C@H](CO)NC(=O)[C@H](Cc1ccc(O)cc1)NC(=O)[C@H](CC(=O)O)NC(=O)[C@H](CO)NC(=O)[C@@H](NC(=O)[C@H](Cc1ccccc1)NC(=O)[C@@H](NC(=O)CNC(=O)[C@H](Cc1c[nH]cn1)NC(=O)[C@H](CO)NC(=O)CCc1c[nH]cn1)[C@@H](C)O)[C@@H](C)O)C(=O)N[C@@H](CCCNC(=N)N)C(=O)N[C@@H](CCCNC(=N)N)C(=O)N[C@@H](C)C(=O)N[C@@H](CCC(N)=O)C(=O)N[C@@H](CCC(=O)O)C(=O)N[C@@H](Cc1ccccc1)C(=O)N[C@H](C(=O)N[C@@H](CCC(N)=O)C(=O)N[C@@H](Cc1c[nH]c2ccccc12)C(=O)N[C@@H](CC(C)C)C(=O)N[C@@H](CC(C)C)C(=O)N[C@@H](CO)C(=O)N[C@H](C(=O)O)[C@@H](C)O)C(C)C)C(=O)O)C(=O)O)C(=O)O)C(=O)O` [Example 11, N^ϵ16-[(4S)-4-[[(4S)-4-[[(4S)-4-[[(4S)-4-acetamido-4-carboxybutanoyl]amino]-4-carboxybutanoyl]amino]-4-carboxybutanoyl]amino]-4-carboxybutanoyl]-[Imp1, His3, Glu15, Lys16, Glu21, Leu27, Ser28]-Glucagon] (Desaminohistidyl-SHGTFTSDYSKYLEK([γGlu-γGlu-γGlu-γGlu-Ac])RRAQEFVQWLLST-OH), for which the recovery at 250 μM was 98%.
Take `CC(=O)N[C@@H](CCC(=O)N[C@@H](CCC(=O)N[C@@H](CCC(=O)N[C@@H](CCC(=O)NCCCC[C@H](NC(=O)[C@H](C)NC(=O)[C@H](CCCNC(=N)N)NC(=O)[C@H](CCCNC(=N)N)NC(=O)[C@H](CO)NC(=O)[C@H](CCC(=O)O)NC(=O)[C@H](CC(C)C)NC(=O)[C@H](Cc1ccc(O)cc1)NC(=O)[C@H](CCCCN)NC(=O)[C@H](CO)NC(=O)[C@H](Cc1ccc(O)cc1)NC(=O)[C@H](CC(=O)O)NC(=O)[C@H](CO)NC(=O)[C@@H](NC(=O)[C@H](Cc1ccccc1)NC(=O)[C@@H](NC(=O)CNC(=O)[C@H](Cc1c[nH]cn1)NC(=O)[C@H](CO)NC(=O)CCc1c[nH]cn1)[C@@H](C)O)[C@@H](C)O)C(=O)N[C@@H](CCC(=O)O)C(=O)N[C@@H](Cc1ccccc1)C(=O)N[C@H](C(=O)N[C@@H](CCC(N)=O)C(=O)N[C@@H](Cc1c[nH]c2ccccc12)C(=O)N[C@@H](CC(C)C)C(=O)N[C@@H](CC(C)C)C(=O)N[C@@H](CO)C(=O)N[C@H](C(=O)O)[C@@H](C)O)C(C)C)C(=O)O)C(=O)O)C(=O)O)C(=O)O` [Example 12, N^ϵ20-[(4S)-4-[[(4S)-4-[[(4S)-4-[[(4S)-4-acetamido-4-carboxybutanoyl]amino]-4-carboxybutanoyl]amino]-4-carboxybutanoyl]amino]-4-carboxybutanoyl]-[Imp1, His3, Glu15, Lys20, Glu21, Leu27, Ser28]-Glucagon] (Desaminohistidyl-SHGTFTSDYSKYLESRRAK([γGlu-γGlu-γGlu-γGlu-Ac])EFVQWLLST-OH): the recovery at 250 μM was found to be 88%.
In the case of `CC(=O)N[C@@H](CCC(=O)N[C@@H](CCC(=O)N[C@@H](CCC(=O)N[C@@H](CCC(=O)NCC(=O)NCCCC[C@H](NC(=O)[C@@H](NC(=O)[C@H](Cc1ccccc1)NC(=O)[C@H](CCC(=O)O)NC(=O)[C@H](CCC(N)=O)NC(=O)[C@H](C)NC(=O)[C@H](CCCNC(=N)N)NC(=O)[C@H](CCCNC(=N)N)NC(=O)[C@H](CO)NC(=O)[C@H](CCC(=O)O)NC(=O)[C@H](CC(C)C)NC(=O)[C@H](Cc1ccc(O)cc1)NC(=O)[C@H](CCCCN)NC(=O)[C@H](CO)NC(=O)[C@H](Cc1ccc(O)cc1)NC(=O)[C@H](CC(=O)O)NC(=O)[C@H](CO)NC(=O)[C@@H](NC(=O)[C@H](Cc1ccccc1)NC(=O)[C@@H](NC(=O)CNC(=O)[C@H](Cc1c[nH]cn1)NC(=O)[C@H](CO)NC(=O)CCc1c[nH]cn1)[C@@H](C)O)[C@@H](C)O)C(C)C)C(=O)N[C@@H](Cc1c[nH]c2ccccc12)C(=O)N[C@@H](CC(C)C)C(=O)N[C@@H](CC(C)C)C(=O)N[C@@H](CO)C(=O)N[C@H](C(=O)O)[C@@H](C)O)C(=O)O)C(=O)O)C(=O)O)C(=O)O` [Example 17, N^ϵ24-[2-[[(4S)-4-[[(4S)-4-[[(4S)-4-[[(4S)-4-acetamido-4-carboxybutanoyl]amino]-4-carboxybutanoyl]amino]-4-carboxybutanoyl]amino]-4-carboxybutanoyl]amino]acetyl]-[Imp1, His3, Glu15, Glu21, Lys24, Leu27, Ser28]-Glucagon] (Desaminohistidyl-SHGTFTSDYSKYLESRRAQEFVK([Gly-γGlu-γGlu-γGlu-γGlu-Ac])WLLST-OH) it was 100%.
